Results from the NIST ThermoML archive (doi:10.1021/je0501843).
“And” between values parts separate entries of the source, which are not always exact repeats. Equal values may be shown once. Numbers after ± are expanded uncertainties.

Experiment: molar heat capacity at constant volume
Conditions: Fluid (supercritical or subcritical phases), Vacuum adiabatic calorimetry

FC(F)C(F)(F)F [pentafluoroethane]
Conditions | molar heat capacity at constant volume
391 K, Mass density=403.1 kg/m3 | 115.12 ± 2.3 J/K/mol
391 K, Mass density=502.4 kg/m3 | 111.21 ± 2.2 J/K/mol
391 K, Mass density=584.7 kg/m3 | 113.95 ± 2.3 J/K/mol
391 K, Mass density=687.1 kg/m3 | 114.69 ± 2.3 J/K/mol
391 K, Mass density=772 kg/m3 | 114.4 ± 2.3 J/K/mol
391 K, Mass density=880.2 kg/m3 | 113.13 ± 2.3 J/K/mol
391 K, Mass density=971.8 kg/m3 | 113.73 ± 2.3 J/K/mol and 111.12 ± 2.2 J/K/mol
392 K, Mass density=403.1 kg/m3 | 113.94 ± 2.3 J/K/mol
392 K, Mass density=502.4 kg/m3 | 111.32 ± 2.2 J/K/mol
392 K, Mass density=584.7 kg/m3 | 113.44 ± 2.3 J/K/mol
392 K, Mass density=687.1 kg/m3 | 113.17 ± 2.3 J/K/mol
392 K, Mass density=772 kg/m3 | 112.45 ± 2.3 J/K/mol
392 K, Mass density=880.1 kg/m3 | 111.39 ± 2.2 J/K/mol
392 K, Mass density=971.7 kg/m3 | 108.99 ± 2.2 J/K/mol and 110.55 ± 2.2 J/K/mol
393 K, Mass density=403.1 kg/m3 | 113.84 ± 2.3 J/K/mol
393 K, Mass density=502.3 kg/m3 | 114.93 ± 2.3 J/K/mol
393 K, Mass density=584.7 kg/m3 | 112.26 ± 2.3 J/K/mol
393 K, Mass density=687 kg/m3 | 114.98 ± 2.3 J/K/mol
393 K, Mass density=771.9 kg/m3 | 113.77 ± 2.3 J/K/mol
393 K, Mass density=880 kg/m3 | 112.82 ± 2.3 J/K/mol
393 K, Mass density=971.6 kg/m3 | 109.6 ± 2.2 J/K/mol and 110.84 ± 2.2 J/K/mol
394 K, Mass density=403.1 kg/m3 | 113.19 ± 2.3 J/K/mol
394 K, Mass density=502.3 kg/m3 | 113.53 ± 2.3 J/K/mol
394 K, Mass density=584.6 kg/m3 | 113.56 ± 2.3 J/K/mol
394 K, Mass density=687 kg/m3 | 116.48 ± 2.3 J/K/mol
394 K, Mass density=771.9 kg/m3 | 114.28 ± 2.3 J/K/mol
394 K, Mass density=880 kg/m3 | 113.31 ± 2.3 J/K/mol
394 K, Mass density=971.6 kg/m3 | 113.46 ± 2.3 J/K/mol and 112.41 ± 2.3 J/K/mol
395 K, Mass density=403 kg/m3 | 112.66 ± 2.3 J/K/mol
395 K, Mass density=502.3 kg/m3 | 112.95 ± 2.3 J/K/mol
395 K, Mass density=584.6 kg/m3 | 114.13 ± 2.3 J/K/mol
395 K, Mass density=687 kg/m3 | 114.63 ± 2.3 J/K/mol
395 K, Mass density=771.8 kg/m3 | 113.37 ± 2.3 J/K/mol
395 K, Mass density=879.9 kg/m3 | 112.11 ± 2.3 J/K/mol
395 K, Mass density=971.5 kg/m3 | 112.76 ± 2.3 J/K/mol and 111.6 ± 2.2 J/K/mol
396 K, Mass density=403 kg/m3 | 114.19 ± 2.3 J/K/mol
396 K, Mass density=502.3 kg/m3 | 115.6 ± 2.3 J/K/mol
396 K, Mass density=584.6 kg/m3 | 113.53 ± 2.3 J/K/mol
396 K, Mass density=686.9 kg/m3 | 113.17 ± 2.3 J/K/mol
396 K, Mass density=771.8 kg/m3 | 113.35 ± 2.3 J/K/mol
396 K, Mass density=879.9 kg/m3 | 112.93 ± 2.3 J/K/mol
396 K, Mass density=971.4 kg/m3 | 112.77 ± 2.3 J/K/mol and 110.2 ± 2.2 J/K/mol
397 K, Mass density=403 kg/m3 | 115.11 ± 2.3 J/K/mol
397 K, Mass density=502.2 kg/m3 | 113.37 ± 2.3 J/K/mol
397 K, Mass density=584.5 kg/m3 | 112.42 ± 2.3 J/K/mol
397 K, Mass density=686.9 kg/m3 | 113.72 ± 2.3 J/K/mol
397 K, Mass density=771.7 kg/m3 | 113.23 ± 2.3 J/K/mol
397 K, Mass density=879.8 kg/m3 | 113.97 ± 2.3 J/K/mol
397 K, Mass density=971.3 kg/m3 | 112.64 ± 2.3 J/K/mol and 111.54 ± 2.2 J/K/mol
398 K, Mass density=403 kg/m3 | 115.94 ± 2.3 J/K/mol
398 K, Mass density=502.2 kg/m3 | 111.91 ± 2.2 J/K/mol
398 K, Mass density=584.5 kg/m3 | 113.66 ± 2.3 J/K/mol
398 K, Mass density=686.8 kg/m3 | 116.24 ± 2.3 J/K/mol
398 K, Mass density=771.7 kg/m3 | 114.52 ± 2.3 J/K/mol
398 K, Mass density=879.7 kg/m3 | 113.6 ± 2.3 J/K/mol
398 K, Mass density=971.3 kg/m3 | 113.46 ± 2.3 J/K/mol and 112.92 ± 2.3 J/K/mol
399 K, Mass density=502.2 kg/m3 | 114.43 ± 2.3 J/K/mol
399 K, Mass density=584.5 kg/m3 | 115.44 ± 2.3 J/K/mol
399 K, Mass density=686.8 kg/m3 | 115.5 ± 2.3 J/K/mol
399 K, Mass density=771.6 kg/m3 | 114.85 ± 2.3 J/K/mol
399 K, Mass density=879.7 kg/m3 | 112.05 ± 2.3 J/K/mol
399 K, Mass density=971.2 kg/m3 | 112.08 ± 2.3 J/K/mol
